In PMC11062922 (Nature Chemical Biology, 2023):
Read-outs that look alike come from different tables or passages of the source.

Assays:
ACOX1 = target: T1, ACOX1 (Homo sapiens, UniProt Q15067); experiment: Kinobeads two-dose competition binding: ACOX1; details: for CATDS: sheet CATDS matrix 2, Gene Name ACOX1;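 as to all read-outs here: competition of compounds with immobilized broad-spectrum kinase inhibitor beads in cell lysate at 100 and 1,000 nM, 45 min at 4 °C, bead-bound protein quantified by label-free MS versus DMSO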
T1 construct: endogenous in cells
T1 sequence (Q15067 1-660): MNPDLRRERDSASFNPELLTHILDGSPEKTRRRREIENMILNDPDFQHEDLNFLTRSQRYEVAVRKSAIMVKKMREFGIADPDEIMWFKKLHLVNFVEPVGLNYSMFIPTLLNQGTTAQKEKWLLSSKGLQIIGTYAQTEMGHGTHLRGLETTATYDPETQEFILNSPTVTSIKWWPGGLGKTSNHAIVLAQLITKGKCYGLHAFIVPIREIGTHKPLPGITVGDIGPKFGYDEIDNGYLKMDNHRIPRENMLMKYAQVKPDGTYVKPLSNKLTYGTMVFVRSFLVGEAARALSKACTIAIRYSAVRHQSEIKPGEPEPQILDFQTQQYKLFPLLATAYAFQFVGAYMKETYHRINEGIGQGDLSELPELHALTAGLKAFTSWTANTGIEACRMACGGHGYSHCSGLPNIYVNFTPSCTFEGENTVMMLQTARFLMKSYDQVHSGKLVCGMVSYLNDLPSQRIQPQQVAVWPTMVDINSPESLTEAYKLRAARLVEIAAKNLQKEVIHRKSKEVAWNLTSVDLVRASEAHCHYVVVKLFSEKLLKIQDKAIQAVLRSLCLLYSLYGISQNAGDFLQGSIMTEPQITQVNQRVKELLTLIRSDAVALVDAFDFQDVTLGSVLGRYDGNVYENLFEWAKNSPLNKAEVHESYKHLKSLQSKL

AAK1 = target: T2, AAK1 (Homo sapiens, UniProt Q2M2I8); experiment: Kinobeads two-dose competition binding: AAK1; details: for CATDS: sheet CATDS matrix 2, Gene Name AAK1; for potency estimated from few doses: read-out: Kinobeads Drugmatrix - all: apparent Kd, AAK1;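 as to all read-outs here: kinobeads competition pulldown from cell lysate, compound preincubated 45 min at 4 °C, bead-bound protein measured by label-free mass spectrometry against DMSO vehicle control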
T2 construct: to maximize the representation of endogenous proteins; endogenous in cells
T2 sequence (Q2M2I8 whole entry): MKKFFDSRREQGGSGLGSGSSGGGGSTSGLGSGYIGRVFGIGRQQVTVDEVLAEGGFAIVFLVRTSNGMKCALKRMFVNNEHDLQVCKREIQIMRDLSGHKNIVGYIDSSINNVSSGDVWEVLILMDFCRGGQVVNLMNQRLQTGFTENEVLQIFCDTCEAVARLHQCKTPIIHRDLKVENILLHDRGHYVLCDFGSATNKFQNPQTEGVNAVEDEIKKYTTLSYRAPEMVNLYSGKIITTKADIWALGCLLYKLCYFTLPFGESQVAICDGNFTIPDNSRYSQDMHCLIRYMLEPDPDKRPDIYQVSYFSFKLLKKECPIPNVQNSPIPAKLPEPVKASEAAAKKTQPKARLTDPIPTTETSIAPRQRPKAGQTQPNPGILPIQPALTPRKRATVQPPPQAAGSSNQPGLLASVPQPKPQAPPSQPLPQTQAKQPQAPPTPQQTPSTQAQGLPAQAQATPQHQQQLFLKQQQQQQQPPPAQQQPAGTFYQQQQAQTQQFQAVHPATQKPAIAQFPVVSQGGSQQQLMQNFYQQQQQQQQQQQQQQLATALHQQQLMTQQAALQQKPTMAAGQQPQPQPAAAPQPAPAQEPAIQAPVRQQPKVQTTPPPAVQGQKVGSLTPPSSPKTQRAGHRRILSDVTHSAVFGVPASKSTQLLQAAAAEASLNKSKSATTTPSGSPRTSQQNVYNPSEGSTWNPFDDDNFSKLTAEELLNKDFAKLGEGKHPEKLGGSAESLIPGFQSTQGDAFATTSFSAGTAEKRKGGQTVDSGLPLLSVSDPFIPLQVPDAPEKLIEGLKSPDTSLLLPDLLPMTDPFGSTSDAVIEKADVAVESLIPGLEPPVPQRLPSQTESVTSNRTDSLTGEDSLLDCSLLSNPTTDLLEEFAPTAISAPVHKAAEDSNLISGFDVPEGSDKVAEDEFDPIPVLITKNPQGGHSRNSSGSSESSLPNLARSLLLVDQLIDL

ABL1 = ABL1 (Homo sapiens, UniProt P00519); experiment: Kinobeads two-dose competition binding: ABL1; details: sheet CATDS matrix 2; Gene Name ABL1
ABL1, sequence (P00519 28-1130 limits assumed): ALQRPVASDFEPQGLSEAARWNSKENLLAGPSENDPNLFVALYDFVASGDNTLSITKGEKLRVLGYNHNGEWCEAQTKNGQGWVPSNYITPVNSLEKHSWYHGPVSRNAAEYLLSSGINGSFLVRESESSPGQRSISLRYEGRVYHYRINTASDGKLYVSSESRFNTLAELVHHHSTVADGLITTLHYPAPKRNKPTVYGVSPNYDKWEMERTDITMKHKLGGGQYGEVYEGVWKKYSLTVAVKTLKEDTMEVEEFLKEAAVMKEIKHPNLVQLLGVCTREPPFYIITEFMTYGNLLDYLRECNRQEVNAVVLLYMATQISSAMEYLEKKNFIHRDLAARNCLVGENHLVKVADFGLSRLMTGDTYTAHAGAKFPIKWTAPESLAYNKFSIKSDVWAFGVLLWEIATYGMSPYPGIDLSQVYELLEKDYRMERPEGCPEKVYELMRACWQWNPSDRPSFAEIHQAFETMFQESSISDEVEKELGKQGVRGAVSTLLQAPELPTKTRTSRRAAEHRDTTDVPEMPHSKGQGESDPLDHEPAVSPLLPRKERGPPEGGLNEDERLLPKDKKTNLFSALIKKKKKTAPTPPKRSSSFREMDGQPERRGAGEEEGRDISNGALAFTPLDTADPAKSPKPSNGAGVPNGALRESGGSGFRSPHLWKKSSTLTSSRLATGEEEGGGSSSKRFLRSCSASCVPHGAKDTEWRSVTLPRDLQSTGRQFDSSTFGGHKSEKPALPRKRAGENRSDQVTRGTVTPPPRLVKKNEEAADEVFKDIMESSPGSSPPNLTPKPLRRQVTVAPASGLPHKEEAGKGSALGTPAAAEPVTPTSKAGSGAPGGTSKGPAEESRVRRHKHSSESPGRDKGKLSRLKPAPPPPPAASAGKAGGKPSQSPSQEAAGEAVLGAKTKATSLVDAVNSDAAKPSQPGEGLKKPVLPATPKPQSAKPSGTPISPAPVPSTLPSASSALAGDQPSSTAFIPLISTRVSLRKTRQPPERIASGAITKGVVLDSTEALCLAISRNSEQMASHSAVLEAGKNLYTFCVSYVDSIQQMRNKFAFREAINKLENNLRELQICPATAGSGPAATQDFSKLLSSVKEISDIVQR

ABL2 = target: T3, ABL2 (Homo sapiens, UniProt P42684); experiment: Kinobeads two-dose competition binding: ABL2; details: sheet CATDS matrix 2; Gene Name ABL2
T3 construct: endogenous in cells
T3 sequence (P42684 whole entry): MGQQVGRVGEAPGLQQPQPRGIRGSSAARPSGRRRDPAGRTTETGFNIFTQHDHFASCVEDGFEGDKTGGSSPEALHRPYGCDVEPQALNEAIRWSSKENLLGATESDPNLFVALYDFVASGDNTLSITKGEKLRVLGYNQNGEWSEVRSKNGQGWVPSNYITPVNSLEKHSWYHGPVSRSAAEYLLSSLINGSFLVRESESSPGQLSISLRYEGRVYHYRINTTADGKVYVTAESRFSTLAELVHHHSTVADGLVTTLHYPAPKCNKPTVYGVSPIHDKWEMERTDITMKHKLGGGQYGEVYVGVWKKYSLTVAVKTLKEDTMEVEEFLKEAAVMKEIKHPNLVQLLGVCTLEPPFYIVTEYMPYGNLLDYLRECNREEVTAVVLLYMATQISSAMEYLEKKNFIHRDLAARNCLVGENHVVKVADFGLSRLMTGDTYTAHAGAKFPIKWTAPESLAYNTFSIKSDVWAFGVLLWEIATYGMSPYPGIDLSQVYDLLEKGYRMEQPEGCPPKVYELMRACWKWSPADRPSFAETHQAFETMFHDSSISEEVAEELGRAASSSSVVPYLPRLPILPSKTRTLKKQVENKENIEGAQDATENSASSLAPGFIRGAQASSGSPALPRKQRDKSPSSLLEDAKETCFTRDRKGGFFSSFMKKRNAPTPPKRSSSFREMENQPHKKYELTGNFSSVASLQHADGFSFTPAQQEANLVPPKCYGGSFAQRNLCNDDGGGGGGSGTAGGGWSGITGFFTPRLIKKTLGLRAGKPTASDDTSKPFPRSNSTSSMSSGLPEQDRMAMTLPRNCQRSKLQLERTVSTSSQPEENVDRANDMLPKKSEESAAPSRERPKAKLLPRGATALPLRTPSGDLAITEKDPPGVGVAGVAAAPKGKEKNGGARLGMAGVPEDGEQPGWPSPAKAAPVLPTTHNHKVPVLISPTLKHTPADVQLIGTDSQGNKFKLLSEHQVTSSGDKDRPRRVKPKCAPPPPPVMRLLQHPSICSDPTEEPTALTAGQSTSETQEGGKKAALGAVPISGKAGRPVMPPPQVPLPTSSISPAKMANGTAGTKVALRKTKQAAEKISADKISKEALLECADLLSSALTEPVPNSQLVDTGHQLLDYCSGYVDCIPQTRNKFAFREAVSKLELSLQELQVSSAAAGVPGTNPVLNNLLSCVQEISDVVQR

ACAD11 = target: T4, ACAD11 (Homo sapiens, UniProt Q709F0); experiment: Kinobeads two-dose competition binding: ACAD11; details: sheet CATDS matrix 2; Gene Name ACAD11
T4 construct: endogenous in cells
T4 sequence (Q709F0 1-780): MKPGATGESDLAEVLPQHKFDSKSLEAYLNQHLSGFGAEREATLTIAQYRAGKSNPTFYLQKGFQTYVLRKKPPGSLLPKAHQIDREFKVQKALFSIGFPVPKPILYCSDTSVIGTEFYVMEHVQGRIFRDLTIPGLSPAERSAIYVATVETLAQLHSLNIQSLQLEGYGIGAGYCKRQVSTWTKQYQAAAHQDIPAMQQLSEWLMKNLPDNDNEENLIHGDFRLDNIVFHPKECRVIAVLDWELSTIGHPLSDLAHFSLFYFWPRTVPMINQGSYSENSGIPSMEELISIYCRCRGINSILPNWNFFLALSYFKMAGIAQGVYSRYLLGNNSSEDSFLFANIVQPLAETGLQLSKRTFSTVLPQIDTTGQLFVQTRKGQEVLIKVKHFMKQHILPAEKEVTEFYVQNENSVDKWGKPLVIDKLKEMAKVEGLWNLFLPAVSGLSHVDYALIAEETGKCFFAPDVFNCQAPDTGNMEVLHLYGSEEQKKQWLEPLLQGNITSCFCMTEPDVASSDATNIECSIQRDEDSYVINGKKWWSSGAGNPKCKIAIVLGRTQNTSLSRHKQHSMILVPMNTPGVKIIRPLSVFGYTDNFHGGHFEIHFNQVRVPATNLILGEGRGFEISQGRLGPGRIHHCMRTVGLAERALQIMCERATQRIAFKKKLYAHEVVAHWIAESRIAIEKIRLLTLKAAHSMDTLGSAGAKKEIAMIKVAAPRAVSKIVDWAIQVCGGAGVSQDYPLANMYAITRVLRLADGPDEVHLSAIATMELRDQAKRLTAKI

| Compound | CATDS (ACOX1) | CATDS (AAK1) | CATDS (ABL1) | CATDS (ABL2) | CATDS (ACAD11) | potency estimated from few doses (ACOX1; sheet "Kinobeads Drugmatrix -nanomolar" (only nanomolar interactions), read-out: Kinobeads Drugmatrix -nanomolar: apparent Kd, ACOX1) [µM] | potency estimated from few doses (AAK1) [µM] | potency estimated from few doses (AAK1; sheet "Kinobeads Drugmatrix - all", unit inferred, same values below 1000 recur in sheet "nanomolar") [µM] |
| --- | --- | --- | --- | --- | --- | --- | --- | --- |
| Nc1nc(-c2ccc3c(N)n[nH]c3c2)cc(N2CCCCC2)n1 [GSK2228768A] | 0 | 0.1964 | 0 | 0 | 0 | – | – | – |
| O=c1cc(N2CCOCC2)nc2n(Cc3cccc(Cl)c3Cl)c3ccccc3n12 [GSK2299009A] | 0 | 0 | 0 | 0 | 0 | – | – | – |
| COc1ccc(Nc2nccc(N3CCC(NC(=O)C(C)c4ccc(Cl)cc4)C3)n2)cc1 (centres unmarked) [GSK1379735A] | 0 | 0 | 0 | 0 | 0 | – | – | – |
| CCCNC(=O)c1ccc(Nc2ncc(C(F)(F)F)c(Nc3ccccc3C(C)=O)n2)c(Br)c1 [BI00801818] | 0 | 0 | 0 | 0 | 0 | – | – | – |
| Cc1c(Cn2ccn3c(=O)cc(N4CCOCC4)nc23)cccc1C(F)(F)F [GSK2289044B] | 0 | 0 | 0 | 0 | 0 | – | – | – |
| CCCN1CCCC(c2ccc(Nc3nc(Nc4cc(F)ccc4C(N)=O)c4cc[nH]c4n3)c(OC)c2)C1 (centres unmarked) [GSK1173862A] | 0 | 0 | 0 | 0 | 0 | – | – | – |
| COc1cc2c(cc1OC)C(=C(Nc1ccccc1)c1cccc(CN)c1)C(=O)N2 [BIBF0846CL] | 0 | 0 | 0 | 0 | 0 | – | – | – |
| Oc1ccc2ncnc(Nc3ccc(OCc4ccccc4)cc3)c2c1 [GI262866A] | 0.07628 | 0 | 0 | 0 | 0 | 0.83 | – | – |
| Nc1nc(Nc2ccccc2)cc(-c2ccc3c(N)n[nH]c3c2)n1 [GSK2225749A] | 0 | 0.2514 | 0 | 0 | 0 | – | – | – |
| Cc1cccc(Cn2ccn3c(=O)cc(N4CCOCC4)nc23)c1 [GSK2297542A] | 0 | 0 | 0 | 0 | 0 | – | – | – |
| COc1ccc(S(=O)(=O)NC2CCN(c3cc(C)nc(Nc4cccc(C#N)c4)n3)CC2)cc1 [GSK1653539A] | 0 | 0 | 0 | 0 | 0 | – | – | – |
| COc1c(OCCCN2CCOCC2)ccc2c1N=C(NC(=O)c1cnc(N)nc1)N1CCN=C21 [Copanlisib, reference compound] | 0 | 0 | 0 | 0 | 0 | – | – | – |
| Cn1cc(C2=C(c3cn(C4CCN(Cc5ccccn5)CC4)c4ccccc34)C(=O)NC2=O)c2ccccc21 [Enzastaurin, reference compound] | 0 | 0 | 0 | 0 | 0 | – | – | – |
| O=c1[nH]ccc2nc(N[C@@H]3CCNC3)nc(Nc3cc(Cl)cc(Cl)c3)c12 [GSK2188764A] | 0 | 0.04842 | 0 | 0 | 0 | – | 0.114 | – |
| O=C(NCCNc1ccnc(NCc2ccc(F)cc2)n1)c1cc2ccccc2s1 [GSK1379944A] | 0 | 0 | 0 | 0 | 0 | – | – | – |
| COc1ccc2ncnc(Nc3ccc(OCc4ccccc4)cc3)c2c1 [GI261520A] | 0 | 0 | 0 | 0 | 0 | – | – | – |

| Compound | CATDS (ACOX1) | CATDS (AAK1) | CATDS (ABL1) | CATDS (ABL2) | CATDS (ACAD11) | potency estimated from few doses (ACOX1; sheet "Kinobeads Drugmatrix -nanomolar" (only nanomolar interactions), read-out: Kinobeads Drugmatrix -nanomolar: apparent Kd, ACOX1) [µM] | potency estimated from few doses (AAK1) [µM] | potency estimated from few doses (AAK1; sheet "Kinobeads Drugmatrix - all", unit inferred, same values below 1000 recur in sheet "nanomolar") [µM] |
| --- | --- | --- | --- | --- | --- | --- | --- | --- |
| COc1cc2c(cc1Nc1nc(Nc3ccsc3C(N)=O)c3cc[nH]c3n1)N(C(=O)CN(C)C)CCC2(C)C [GSK2163632A] | 0 | 0 | 0 | 0 | 0 | – | – | – |
| CCCN1CCC(Oc2cc(Nc3nc(Nc4cccc(F)c4C(N)=O)c4cc[nH]c4n3)c(OC)cc2Cl)CC1 [GSK1713088A] | 0 | 0 | 0 | 0 | 0 | – | – | – |
| N#Cc1cccc(C(=O)NC2CCN(c3ccnc(Nc4ccc(F)cc4)n3)C2)c1 (centres unmarked) [GSK1379708A] | 0 | 0 | 0 | 0 | 0 | – | – | – |
| CC(C)c1cc(-c2ccc3c(N)n[nH]c3c2)nc(N)n1 [GSK2250882A] | 0 | 0.3935 | 0 | 0 | 0 | – | – | – |
| Cc1ccc(-n2nc(C(C)(C)C)cc2NC(=O)Nc2ccc(OCCN3CCOCC3)cc2)cc1 [BIRB0876BS] | 0 | 0 | 0 | 0 | 0 | – | – | – |
| NCC(NC(=O)c1cc(-c2cccnc2)c(-c2ccnc3[nH]ccc23)s1)c1ccccc1 (centres unmarked) [GSK1323434A] | 0 | 0 | 0 | 0 | 0 | – | – | – |
| NC(=O)c1sc(-n2cnc3ccccc32)cc1OCc1ccccc1Br [GSK1023156A] | 0 | 0 | 0 | 0 | 0 | – | – | – |
| O=c1[nH]cc(-c2ccc(N3CCOCC3)cc2)c2sc(-c3cn[nH]c3)cc12 [GSK2276055A] | 0 | 0 | 0 | 0 | 0 | – | – | – |
| O=c1cc(N2CCOCC2)nc2n(Cc3cccc4ccccc34)ccn12 [GSK2333389A] | 0 | 0 | 0 | 0 | 0 | – | – | – |
| COc1cc2ncnc(Nc3cccc(Cl)c3F)c2cc1O[C@H]1CC[C@@]2(CC1)NCCNC2=O [BI00113608] | 0 | 0 | 0 | 0 | 0 | – | – | – |
| NCC(NCc1ccc(-c2ccnc3[nH]ccc23)s1)c1ccccc1 (centres unmarked) [GSK1321565A] | 0 | 0.2016 | 0 | 0 | 0 | – | – | 0.82 |
| O=c1cc(N2CCOCC2)nc2n(Cc3ccccc3F)ccn12 [GSK2297428A] | 0 | 0 | 0 | 0 | 0 | – | – | – |
| CCNCC(Cc1ccccc1)NC(=O)c1cc(Br)c(-c2ccnc3[nH]ccc23)s1 (centres unmarked) [GSK1383280A] | 0 | 0 | 0 | 0 | 0 | – | – | – |
| CCCc1ccc(S(=O)(=O)NC2CCN(c3ccnc(Nc4ccc(OC)cc4)n3)C2)cc1 (centres unmarked) [GSK1379737A] | 0 | 0 | 0 | 0 | 0 | – | – | – |
| O=c1cc(N2CCOCC2)nc2n(Cc3cccc(Cl)c3Cl)ccn12 [GSK2286295A] | 0 | 0 | 0 | 0 | 0 | – | – | – |
